The test system of experiment [1] is bitter taste receptor cells / high-salt sensing pathway. Briefly: chorda tympani nerve recordings before and after AITC application to the tongue. The class given is in vivo, mice. Here is the method: Lingual stimulation and recording procedures were performed as previously described (Chandrashekar et al. (2010); Nelson et al. (2002)). Data analysis used the integrated response during the 5 seconds of tastant stimulation.
Responses to 20 mM citric acid (FIGS. 2 and 3), 60 mM NaCl (FIG. 8, 12, and 13), or 250 mM KCl before AITC application (FIG. 13) were used to normalize responses for each experimental series. For FIG. 7, data were normalized to 20 mM citric acid and then scaled to WT responses before AITC application. Data were analyzed for statistical significance using an unpaired, one-tailed Student's t-test and 95% confidence limits.
To compute the amiloride-sensitive salt component, the stimulation regime involved sequential applications of NaCl solutions first without, and then with, amiloride (5 seconds pre- or pre- and post-incubation and co-application with NaCl solution) in the same experimental series. The amiloride-insensitive component was defined as the response in the presence of amiloride. The fraction of the response inhibited by amiloride was defined as the amiloride-sensitive component (amiloride-sensitive component=response without amiloride−response with amiloride).
For pharmacological inhibition studies using allyl isothiocyanate (AITC), responses to a series of taste stimuli were measured. Then 3 mM AITC (Aldrich, 377430-5G) was applied to the tongue at a rate of 6 ml/minute for 5 minutes. The tongue was washed with artificial saliva for 1 minute and nerve responses to the same series of taste stimuli measured. Responses before and after AITC were compared for each animal. To minimize effects of recovery, responses after AITC were recorded within 15 minutes of AITC treatment.

Experiment [2] has as its system tongue carbonic anhydrases. Briefly: chorda tympani nerve recordings before and after DZA treatment of the tongue. The class given is in vivo, mice.
Experiment [3] relates to T2R32-Sapphire positive taste cells. Briefly: calcium imaging of fungiform taste receptor cells. The following applies: T2R32-Sapphire mice; for response of T2R32-Sapphire positive taste cells to stimulus: 500 mM KCl (high-salt), 100 mM citric acid (sour). The class given is cell-based. Here is the method:
Calcium imaging from fungiform TRCs was performed as previously described (Chandrashekar et al. (2010); Oka et al. (2006)).
Fungiform TRCs were loaded in vivo with Calcium Green-1 dextran 3 kD (Invitrogen) by electroporating individual taste buds. Tongues were removed 24-36 hours after dye loading, and the epithelium was peeled enzymatically and placed in a custom recording chamber. The apical surface of the preparation was bathed in a constant flow of artificial saliva, and taste stimuli were delivered by focal application to individual taste buds. Tastants were applied for 1 second, with a minimum of 10 seconds of artificial saliva between stimuli. Changes in [Ca2+]i were monitored using a 5-Live confocal microscope (Zeiss) equipped with a ×40 C-Apochromat 1.20 W objective; images were captured at 4 Hz, and ΔF/F from individual TRCs analyzed and pseudo-colored as described previously (Chandrashekar et al. (2010)).
To identify sapphire positive cells in T2R32-Sapphire mice, 405-nm excitation laser to separate sapphire and Calcium Green-1 fluorescence was used. Mean cellular fluorescence intensity (F) was calculated for the individual TRCs and basal fluorescence (Fo) was assigned to each cell by averaging fluorescence intensity over 3 seconds just before tastant application. ΔF/F was calculated as [F−Fo]/Fo; taste cells were considered responders when ΔF/F exceeded 3 standard deviations above Fo within 5 seconds of tastant application.

Experiment [4] has as its target CA4 (Mus musculus, UniProt Q64444). The settings on record: TRPM5-KO mice; before and after addition of 30 mM KHCO3 (pH7.4).
Where [5] appears, read: control and T2R-PLC rescue animals, AITC treatment.

Chain of CA4 (Q64444 18-277): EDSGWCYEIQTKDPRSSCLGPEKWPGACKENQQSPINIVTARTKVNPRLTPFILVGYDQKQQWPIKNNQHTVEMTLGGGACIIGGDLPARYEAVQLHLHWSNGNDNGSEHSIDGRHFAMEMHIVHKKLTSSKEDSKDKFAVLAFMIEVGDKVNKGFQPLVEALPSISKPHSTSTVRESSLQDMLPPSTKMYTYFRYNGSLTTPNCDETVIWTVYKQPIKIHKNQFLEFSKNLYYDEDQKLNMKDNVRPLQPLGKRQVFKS

Consider `C=CCN=C=S` [AITC, allyl isothiocyanate], for which the “chorda tympani responses to high concentration of bitter tastant cycloheximide” value in experiment [1] (1 mM cycloheximide, 1 and 30 minutes after AITC treatment) is recorded as “strongly suppresses”. Moreover, the “chorda tympani responses to other bitter tastants” value in experiment [1] (10 mM denatonium and 10 mM quinine, after AITC treatment) is given as “suppressed”. For the same compound, the “chorda tympani response to sour taste” value in experiment [1] (20 mM citric acid, after AITC treatment) is on record as “remained unimpaired”. Moreover, the “taste response evoked by AITC itself” value in experiment [1] (5 minutes exposure of the tongue to 3 mM AITC) was “minimal taste response”. In addition, the “fraction of high-salt neural responses eliminated” value in experiment [1] (AITC treatment, FIG. 7) is given as “about 50%”. The “remaining high-salt (KCl) responses in PKD2L1-TeNT mice” value in experiment [1] (PKD2L1-TeNT mice, further treatment with AITC) is recorded as “effectively abolished”. Moreover, the “bitter and high-salt taste responses in TRPA1-KO mice” value in experiment [1] (TRPA1-KO mice, with and without AITC) is “robust AITC-mediated suppression”. Moreover, the “nerve responses to high salt in TRPM5 and PLCβ2 knockout mice” value in experiment [1] (TRPM5-KO and PLCβ2-KO mice, before and after AITC) is listed as “no longer sensitive”. In addition, in experiment [1] (setting [5]), the “chorda tympani responses to 0.1 mM cycloheximide” value is listed as “almost completely suppressed”; the “chorda tympani responses to 500 mM KCl and 500 mM NaCl in the presence of 10 μM amiloride” value is given as “reduced by half”. Moreover, in experiment [1] (wild type mice, 0.1 mM cycloheximide, after 3 mM AITC), the “chorda tympani bitter responses” value was “completely inhibited”. Besides, the “chorda tympani responses to low salt” value in experiment [1] (wild type mice, 60 mM NaCl, after 3 mM AITC) was “did not affect”. In addition, the “chorda tympani responses to high-salt” value in experiment [1] (wild type mice, 250 or 500 mM NaCl + amiloride and KCl, after 3 mM AITC for 5 minutes) is on record as “significantly suppressed”. Moreover, the “chorda tympani responses to KCl (selectively activates the high-salt pathway)” value in experiment [1] (wild type mice, after 3 mM AITC) is on record as “Identical suppression”. The “chorda tympani responses to other taste qualities” value in experiment [1] (wild type mice, sour, sweet, umami tastants, after 3 mM AITC) was “did not affect”.

As for `CCN[C@H]1C[C@H](C)S(=O)(=O)c2sc(S(N)(=O)=O)cc21` [DZA, dorzolamide], the “taste responses from PKD2L1-TeNT mice” value in experiment [2] (PKD2L1-TeNT mice, various salts, 0.5% w/v DZA) is listed as “completely insensitive”. Moreover, the “sour and low salt taste responses” value in experiment [2] (TRPM5-KO mice, 20 mM citric acid, 60 mM NaCl, 0.5% w/v DZA) is “insensitive”. Also, in experiment [2] (TRPM5-KO mice, 0.5% w/v DZA), the “CO2 chorda tympani responses” value is “affected”. Besides, in experiment [2] (TRPM5-KO mice, 0.5% w/v DZA for 5 minutes), the “high-salt induced chorda tympani responses from sour taste cells” value is reported as “reduced”.

`[Cl-].[K+]` [KCl, potassium chloride]: the “number of Sapphire-positive cells activated” value in experiment [3] (500 mM KCl) came out at 12 cells. In addition, the “response of T2R32-Sapphire positive taste cells to stimulus” value in experiment [3] is on record as “responded”.

For the compound `O=C(O)O` [KHCO3], the “chorda tympani responses to 500 mM KCl or 100 mM CaCl2 (PKD2L1-cell mediated high-salt responses)” value in experiment [4] was “strong inhibition”.

As to `O=C(O)CC(O)(CC(=O)O)C(=O)O` [citric acid], in experiment [3], the “response of T2R32-Sapphire positive taste cells to stimulus” value is “not”.

(Values after patent US20160000126A1, “MODULATION OF SALTY TASTE […] ALTERING THE FUNCTION OF BITTER- OR PKD2L1-[…] RECEPTOR CELLS” (THE TRUSTEES OF COLUMBIA UNIVERSITY IN THE CITY OF NEW YORK, priority 2013, published 2016).)
